Test results as given in patent US10745433B2, “Compounds for inhibiting cancer and virus” (priority 2016, dated 2020).
Entries after “also recorded” stand apart in the source; their conditions may differ. Like-named read-outs stand apart in the source and are kept apart here. Values belong to the molecule of their own block, whether it stands above or below them.

Legend:
DU145 = experiment: Growth inhibition assay (MTT), DU145; type: cell-based; conditions: Homo sapiens
Description: (§1) The compounds of the invention were subjected to growth inhibition assay. Cells were seeded in 96-well plastic plates and exposed to the compounds of the invention for 72 hours. Cell viability was assessed using the 3-(4,5-dimethylthiazol-2-yl)-2,5-diphenyltetrazolium bromide assay.

PC3 = experiment: Growth inhibition assay (MTT), PC3; type: cell-based; conditions: Homo sapiens
Description: as §1

LNCap = experiment: Growth inhibition assay (MTT), LNCap; type: cell-based; conditions: Homo sapiens
Description: as §1

N87 = experiment: Growth inhibition assay (MTT), N87; type: cell-based
Description: as §1

MKN45 = experiment: Growth inhibition assay (MTT), MKN45; type: cell-based; conditions: Homo sapiens
Description: as §1

MCF-7 = experiment: Growth inhibition assay (MTT), MCF-7; type: cell-based; conditions: Homo sapiens
Description: as §1

HCT116 = experiment: Growth inhibition assay (MTT), HCT116; type: cell-based; conditions: Homo sapiens
Description: as §1

HT29 = experiment: Growth inhibition assay (MTT), HT29; type: cell-based; conditions: Homo sapiens
Description: as §1

[1] = test system: human MDA-MB-231 breast adenocarcinoma; experiment: MDA-MB-231 xenograft animal model; type: in vivo; conditions: oral, female nude mice; for body weight: FIG. 1(B)
Description: (§2) Anti-cancer Activity Evaluation of the Compounds of the Invention (MPT0L167 and MPT0L179) Against Human MDA-MB-231 Breast Cancer in MDA-MB-231 Xenograft Animal Model and Human Colorectal Cancer HCT116 Xenograft Model […] This study utilized five groups of mice (n=7-8) bearing established human MDA-MB-231 breast adenocarcinoma with mean volumes of ˜250 mm^3.

[2] = test system: human HCT116 colorectal cancer; experiment: Human colorectal cancer HCT116 xenograft model; type: in vivo; conditions: oral, female nude mice; for body weight: FIG. 2(B)
Description: as §2, with “HCT116 colorectal cancer” for “MDA-MB-231 breast adenocarcinoma”, “˜200” for “˜250”

[3] = Pharmacokinetic study (PK), i.v. in rats; type: in vivo; conditions: 2 mg/kg i.v.
Description: 2 mg/kg of niclosamide (MPT0L166) and MPT0L167, MPT0L180 and MPT0L196 were each independently given to five rats by i.v. The blood samples were taken from the rats after 0.03 hour, 0.08 hour, 0.25 hour, 0.5 hour, 1 hour, 2 hours, 4 hours, 6 hour, 8 hours and 24 hours. LC-MS/MS was used to detect the concentration of MPT0L167 in blood.

[4] = Metabolic stability in rat liver microsomes; type: in vitro ADME; conditions: FIG. 3
[5] = Metabolic stability in dog liver microsomes; type: in vitro ADME; conditions: FIG. 3
[6] = Metabolic stability in human liver microsomes; type: in vitro ADME; conditions: FIG. 3
[7] = test system: Zika virus (PRVABC59 strain); experiment: Zika animals study; type: in vivo
Description: The Zika sensitive female mice: ROSA, STAT1^−/− strain was used. MPT0L167 was used to pre-treat the mice for one day. 4*10^7 cells (U-87 MG human glioblastoma cell with infection with Zika virus (PRVABC59 strain)) were injection in mice. After infection, MPT0L167 was administered with 100 mg/kg to the mice by po,qd. The virus detection in serum at day 3. The concentration of virus in serum was detected by Viralplaque assays.

Panc-1 = experiment: Growth inhibition assay (MTT), Panc-1; type: cell-based; conditions: Homo sapiens, Panc-1, Pancreatic cancer, 72 hours
Description: as §1

MIAPACA = experiment: Growth inhibition assay (MTT), MIAPACA; type: cell-based; conditions: Homo sapiens, MIA PaCa-2, 72 hours
Description: as §1

[8] = DU-145, DU145, Prostate cancer, 72 hours, MTT, read-out: IC50
[9] = PC-3, PC3, Prostate cancer, 72 hours, MTT, read-out: IC50
[10] = LNCap, Prostate cancer, 72 hours, MTT, read-out: IC50
[11] = N87, Gastric cancer, 72 hours, MTT, read-out: IC50
[12] = MKN-45, MKN45, Gastric cancer, 72 hours, MTT, read-out: IC50
[13] = MCF7, MCF-7, Breast cancer, 72 hours, MTT, read-out: IC50
[14] = HCT-116, HCT116, Colon cancer, 72 hours, MTT, read-out: IC50
[15] = HT-29, HT29, Colon cancer, 72 hours, MTT, read-out: IC50

IC50 (DU145; [8]): > 25 µM
IC50 (PC3; [9]): > 25 µM
IC50 (LNCap; [10]): 2.44 µM
IC50 (MKN45; [12]): > 25 µM
IC50 (MCF-7; [13]): > 25 µM
IC50 (HCT116; [14]): > 50 µM
IC50 (HT29; [15]): > 50 µM
melting point: 195.5 to 197.2 °C
SMILES: CC(=O)OCOc1ccc(Cl)cc1C(=O)Nc1ccc([N+](=O)[O-])cc1Cl [MPT0L180, Acetic acid 4-chloro-2-(2-chloro-4-nitro-phenylcarbamoyl)-phenoxymethyl ester]
IC50 (N87; [11]): > 25 µM

melting point: 172.4 to 174 °C
SMILES: O=C(Nc1ccc([N+](=O)[O-])c(C(F)(F)F)c1)c1cc(Cl)ccc1O

IC50 (DU145; [8]): > 10 µM
IC50 (PC3; [9]): 1.04 µM
IC50 (LNCap; [10]): 0.97 µM
IC50 (MKN45; [12]): > 25 µM
IC50 (Panc-1): 0.43 µM
IC50 (MIAPACA): 1.17 µM
IC50 (MCF-7; [13]): 3.69 µM
IC50 (HCT116; [14]): 5.64 µM
IC50 (HT29; [15]): 31.1 µM
SMILES: O=C(Nc1ccc([N+](=O)[O-])cc1Cl)c1cc(Cl)ccc1O [#166, niclosamide, reference compound]
IC50 (N87; [11]): 0.14 µM

Second part, the molecule before the results:

SMILES: O=C(Nc1ccc([N+](=O)[O-])cc1Cl)c1cc(Cl)ccc1OC1OC(CO)C(O)C(O)C1O (centres unmarked) [MPT0L167, 5-Chloro-N-(2-chloro-4-nitro-phenyl)-2-(3,4,5-trihydroxy-6-hydroxymethyl-tetrahydro-pyran-2-yloxy)-benzamide]
IC50 (DU145; [8]): > 25 µM
IC50 (PC3; [9]): > 25 µM
IC50 (LNCap; [10]): > 25 µM
IC50 (N87; [11]): > 25 µM
IC50 (MKN45; [12]): > 25 µM
IC50 (MCF-7; [13]): > 25 µM
IC50 (HCT116; [14]): > 50 µM
IC50 (HT29; [15]): > 50 µM
tumor volume ([1]; FIG. 1(A)): significantly reduces tumor volume
body weight [1]: does not significantly reduce body weight
body weight ([1]; listed as MPLOL167): did not exhibit significant change
tumor volume ([2]; FIG. 2(A)): significantly reduces tumor volume
body weight [2]: does not significantly reduce body weight
body weight ([2]; listed as MPLOL167): did not exhibit significant change
half-life in vivo compared with niclosamide (MPT0L166) [3]: longer half-life than MPT0L166
AUC % Extrap obs ([3]; mean): 1.15%
AUC(0-inf) ([3]; rat, blood, iv, mean): 587 ng·h/mL
AUC(0-t) ([3]; rat, blood, iv, mean): 580 ng·h/mL
Cmax ([3]; rat, blood, iv, mean): 3880 ng/mL
MRT inf ([3]; rat, blood, iv, mean): 1.4 h
Tmax ([3]; rat, blood, iv, mean): 1.8 min
half-life ([3]; rat, blood, iv, mean): 7.38 h
clearance ([3]; rat, blood, iv, mean, read-out: CL obs (converted)): 59.1 mL/min/kg
Vd ([3]; rat, blood, iv, mean, read-out: VZ obs): 37.3 L/kg
metabolic stability compared with MPT0L166 [4]: more stable than MPT0L166
metabolic stability compared with MPT0L166 [5]: more stable than MPT0L166
metabolic stability compared with MPT0L166 [6]: more stable than MPT0L166
concentration of virus in serum (Viralplaque assays) ([7]; female ROSA, STAT1−/− mice, 100 mg/kg po,qd, serum at day 3, FIG. 4(A)): inhibition of Zika virus infection; also recorded: significantly inhibits Zika virua growth
body weight ([7]; mouse, in vivo, po, 100 mg/kg): does not significant reduce body weight; also recorded: not significantly changed
melting point: 212.6 to 213.2 °C

SMILES: O=C(Nc1ccc([N+](=O)[O-])cc1Cl)c1cc(Cl)ccc1OC(=O)N1CCC(N2CCCCC2)CC1 [MPT0L196, [1,4′]Bipiperidinyl-1′-carboxylic acid 4-chloro-2-(2-chloro-4-nitro-phenylcarbamoyl)-phenyl ester]
IC50 (DU145; DU-145, 72 h): > 25 µM
IC50 (PC3; PC-3, 72 h): > 25 µM
IC50 (LNCap; LNCaP, 72 h): > 25 µM
IC50 (N87; 72 h): > 25 µM
IC50 (MKN45; MKN-45, 72 h): > 25 µM
IC50 (MCF-7; MCF7, 72 h): > 25 µM
IC50 (HCT116; HCT-116, 72 h): > 50 µM
IC50 (HT29; HT-29, 72 h): > 50 µM
melting point: 216.3 to 217.9 °C
